# Assay results taken from ChEMBL document CHEMBL1150951, “New mycalolides from the marine sponge Mycale magellanica and their interconversion” (J Nat Prod, 1998).
# Test system: L1210
# Assay: Cytotoxicity against mouse L1210 cells
# Type: functional, cell-based
row,Structure (SMILES),IC50 [µg/mL]
1,COC(CO)C(=O)O[C@H](CC[C@H](C)[C@H](C[C@@H]1OC(=O)C[C@@H](O)C/C=C/C(=O)[C@H](C)[C@H](OC)c2coc(n2)-c2coc(n2)-c2coc(n2)/C=C/C[C@H](OC)[C@H]1C)OC)[C@H](C)[C@H](OC(C)=O)[C@H](C)/C=C/N(C)C=O (stereo partly drawn) [38-HYDROXYMYCALOLIDE B],0.015
2,CO[C@H]1C/C=C/c2nc(co2)-c2nc(co2)-c2nc(co2)[C@@H](OC)[C@@H](C)C(=O)/C=C/C[C@H](O)CC(=O)O[C@@H](C[C@H](OC)[C@@H](C)CCC(=O)[C@@H](C)[C@H](O)[C@H](C)/C=C/N(C)C=O)[C@@H]1C [32-HYDROXYMYCALOLIDE A],0.013
3,CO[C@H]1C/C=C/c2nc(co2)-c2nc(co2)-c2nc(co2)[C@@H](OC)[C@@H](C)C(=O)/C=C/C[C@H](O)CC(=O)O[C@@H](C[C@H](OC)[C@@H](C)CCC(O)[C@@H](C)[C@H](OC(C)=O)[C@H](C)/C=C/N(C)C=O)[C@@H]1C (stereo partly drawn) [30-HYDROXYMYCALOLIDE A],0.019
